Columns and labels:
[1] = test system: Cynomolgus monkey; assay: Toxicity in cynomolgus monkey assessed as postmortem parameters measured up to 9 months; assay type: organism-based, Macaca fascicularis; conditions: in vivo
[2] = Half life in cynomolgus monkey at 0.5 mg/kg, iv or 2 mg/kg, po; assay type: ADME, organism-based, Macaca fascicularis; conditions: in vivo
[3] = test system: Cynomolgus monkey; assay: Dose normalized total AUC in cynomolgus monkey at 2 mg/kg, po; assay type: ADME, organism-based, Macaca fascicularis; conditions: in vivo
[4] = test system: Cynomolgus monkey; assay: Dose normalized fAUC in cynomolgus monkey at 2 mg/kg, po; assay type: ADME, organism-based, Macaca fascicularis; conditions: in vivo
[5] = Oral bioavailability in cynomolgus monkey at 2 mg/kg; assay type: ADME, organism-based, Macaca fascicularis; conditions: in vivo
[6] = Fraction unbound in cynomolgus monkey at 0.5 mg/kg, iv or 2 mg/kg, po; assay type: ADME, organism-based, Macaca fascicularis; conditions: in vivo
[7] = biological target: Cytochrome P450 1A2 (Homo sapiens, UniProt P05177); assay: Inhibition of CYP1A2 in human liver microsomes; assay type: ADME
Chain of Cytochrome P450 1A2 (P05177 whole entry): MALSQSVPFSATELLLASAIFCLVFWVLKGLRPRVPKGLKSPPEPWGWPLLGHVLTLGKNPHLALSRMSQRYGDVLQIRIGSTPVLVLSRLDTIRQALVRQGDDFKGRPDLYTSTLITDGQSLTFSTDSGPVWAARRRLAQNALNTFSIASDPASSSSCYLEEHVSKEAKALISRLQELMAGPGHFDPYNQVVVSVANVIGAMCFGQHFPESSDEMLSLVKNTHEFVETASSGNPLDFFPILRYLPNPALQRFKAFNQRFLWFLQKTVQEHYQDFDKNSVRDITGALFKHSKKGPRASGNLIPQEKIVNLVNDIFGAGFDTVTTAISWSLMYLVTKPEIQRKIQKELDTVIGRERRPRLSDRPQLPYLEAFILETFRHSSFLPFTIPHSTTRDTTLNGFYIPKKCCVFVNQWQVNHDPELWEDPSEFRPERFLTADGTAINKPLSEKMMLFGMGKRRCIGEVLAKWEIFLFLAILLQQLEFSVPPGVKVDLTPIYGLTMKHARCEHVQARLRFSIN

[8] = biological target: T1, Cytochrome P450 3A4 (Homo sapiens, UniProt P08684); assay: Induction of CYP3A4 activity in human hepatocytes up to 10 uM; assay type: ADME, cell-based, Hepatocyte
T1 sequence (P08684 whole entry): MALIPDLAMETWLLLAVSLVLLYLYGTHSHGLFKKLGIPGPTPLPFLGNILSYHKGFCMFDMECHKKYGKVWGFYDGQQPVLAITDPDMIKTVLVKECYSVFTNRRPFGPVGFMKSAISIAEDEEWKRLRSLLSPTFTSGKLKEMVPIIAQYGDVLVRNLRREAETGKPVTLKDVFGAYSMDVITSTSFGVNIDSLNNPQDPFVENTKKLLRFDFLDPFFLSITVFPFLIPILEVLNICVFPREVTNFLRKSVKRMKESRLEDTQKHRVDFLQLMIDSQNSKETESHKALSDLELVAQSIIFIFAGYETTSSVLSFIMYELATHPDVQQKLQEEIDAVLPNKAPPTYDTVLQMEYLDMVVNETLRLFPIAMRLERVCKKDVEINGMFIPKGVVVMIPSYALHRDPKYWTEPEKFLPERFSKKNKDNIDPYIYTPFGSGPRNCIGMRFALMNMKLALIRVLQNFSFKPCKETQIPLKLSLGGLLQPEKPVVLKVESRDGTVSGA

[9] = biological target: Sodium-dependent serotonin transporter (Homo sapiens, UniProt P31645); assay: Inhibition of human SERT expressed in HEK293 cells preincubated for 30 mins followed by fluorescent substrate addition measured after 30 mins by plate reader analysis; assay type: cell-based
[10] = biological target: Sodium channel protein type 2 subunit alpha (Homo sapiens, UniProt Q99250); assay: Inhibition of human Nav1.2 channel expressed in Xenopus oocytes by two-intracellular microelectrode voltage clamp method; assay type: cell-based
[11] = biological target: Voltage-dependent L-type calcium channel subunit alpha-1C (Homo sapiens, UniProt Q13936); assay: Displacement of [3H]-diltiazem from human Cav1.2 channel
Chain of Voltage-dependent L-type calcium channel subunit alpha-1C (Q13936 whole entry): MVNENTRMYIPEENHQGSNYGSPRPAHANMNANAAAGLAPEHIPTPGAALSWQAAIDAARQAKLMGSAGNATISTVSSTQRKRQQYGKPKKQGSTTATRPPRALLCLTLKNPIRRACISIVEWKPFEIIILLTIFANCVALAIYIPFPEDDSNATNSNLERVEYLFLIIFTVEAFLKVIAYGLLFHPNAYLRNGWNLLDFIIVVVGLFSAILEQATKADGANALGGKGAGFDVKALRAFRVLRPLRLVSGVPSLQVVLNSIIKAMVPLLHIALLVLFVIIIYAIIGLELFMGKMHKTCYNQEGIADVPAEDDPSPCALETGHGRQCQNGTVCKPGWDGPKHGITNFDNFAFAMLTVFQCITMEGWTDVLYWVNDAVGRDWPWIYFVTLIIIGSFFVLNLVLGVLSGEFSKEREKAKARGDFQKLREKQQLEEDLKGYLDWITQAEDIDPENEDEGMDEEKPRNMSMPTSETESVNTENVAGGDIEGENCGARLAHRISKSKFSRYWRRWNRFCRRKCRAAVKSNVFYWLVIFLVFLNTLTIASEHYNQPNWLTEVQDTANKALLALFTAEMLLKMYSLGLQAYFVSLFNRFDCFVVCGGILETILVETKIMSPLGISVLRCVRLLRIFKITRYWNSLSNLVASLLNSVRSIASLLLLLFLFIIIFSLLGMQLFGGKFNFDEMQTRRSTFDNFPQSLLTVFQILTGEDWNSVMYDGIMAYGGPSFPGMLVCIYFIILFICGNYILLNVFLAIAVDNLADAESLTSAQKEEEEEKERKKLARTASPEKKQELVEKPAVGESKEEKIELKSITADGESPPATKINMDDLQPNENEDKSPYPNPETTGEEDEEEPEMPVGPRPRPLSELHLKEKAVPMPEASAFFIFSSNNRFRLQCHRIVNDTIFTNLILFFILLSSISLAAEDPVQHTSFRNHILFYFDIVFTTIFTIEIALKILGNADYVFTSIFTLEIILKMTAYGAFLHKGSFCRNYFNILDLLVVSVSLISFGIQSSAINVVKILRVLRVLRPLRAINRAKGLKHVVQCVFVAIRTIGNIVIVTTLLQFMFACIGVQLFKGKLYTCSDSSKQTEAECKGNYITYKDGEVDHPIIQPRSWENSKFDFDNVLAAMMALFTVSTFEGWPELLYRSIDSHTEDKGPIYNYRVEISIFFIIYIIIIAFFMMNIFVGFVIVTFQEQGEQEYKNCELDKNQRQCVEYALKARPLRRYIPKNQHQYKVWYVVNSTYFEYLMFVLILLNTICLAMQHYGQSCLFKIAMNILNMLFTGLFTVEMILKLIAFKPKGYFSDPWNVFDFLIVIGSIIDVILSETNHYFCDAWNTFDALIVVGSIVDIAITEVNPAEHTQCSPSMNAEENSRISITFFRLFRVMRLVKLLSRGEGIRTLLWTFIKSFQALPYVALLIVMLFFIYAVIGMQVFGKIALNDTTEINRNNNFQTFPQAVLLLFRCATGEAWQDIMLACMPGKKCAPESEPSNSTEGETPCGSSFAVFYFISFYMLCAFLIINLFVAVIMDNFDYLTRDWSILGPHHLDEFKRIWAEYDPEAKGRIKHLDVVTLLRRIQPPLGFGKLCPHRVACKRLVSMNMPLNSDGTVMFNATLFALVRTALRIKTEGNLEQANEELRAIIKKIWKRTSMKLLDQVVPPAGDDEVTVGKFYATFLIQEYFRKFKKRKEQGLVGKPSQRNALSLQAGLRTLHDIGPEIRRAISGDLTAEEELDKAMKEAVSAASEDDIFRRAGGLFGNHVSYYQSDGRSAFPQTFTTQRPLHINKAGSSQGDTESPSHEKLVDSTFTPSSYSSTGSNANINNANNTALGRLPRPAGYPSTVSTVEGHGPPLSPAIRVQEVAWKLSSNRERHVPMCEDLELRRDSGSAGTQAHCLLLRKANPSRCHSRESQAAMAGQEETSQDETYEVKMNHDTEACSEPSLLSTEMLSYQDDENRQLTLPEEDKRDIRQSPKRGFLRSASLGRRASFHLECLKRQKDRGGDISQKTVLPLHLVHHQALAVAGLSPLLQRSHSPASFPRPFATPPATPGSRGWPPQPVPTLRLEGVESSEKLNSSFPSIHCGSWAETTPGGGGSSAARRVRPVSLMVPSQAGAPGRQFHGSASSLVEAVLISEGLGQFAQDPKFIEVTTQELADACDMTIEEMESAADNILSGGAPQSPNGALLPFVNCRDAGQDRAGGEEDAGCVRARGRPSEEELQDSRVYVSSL

[12] = biological target: T1, Cytochrome P450 3A4; assay: Inhibition of CYP3A4 in human liver microsomes assessed as testosterone 6beta-hydroxylation; assay type: ADME
[13] = biological target: Cytochrome P450 2D6 (Homo sapiens, UniProt P10635); assay: Inhibition of CYP2D6 in human liver microsomes assessed as dextraomethorphan O-demethylation; assay type: ADME
Chain of Cytochrome P450 2D6 (P10635 whole entry): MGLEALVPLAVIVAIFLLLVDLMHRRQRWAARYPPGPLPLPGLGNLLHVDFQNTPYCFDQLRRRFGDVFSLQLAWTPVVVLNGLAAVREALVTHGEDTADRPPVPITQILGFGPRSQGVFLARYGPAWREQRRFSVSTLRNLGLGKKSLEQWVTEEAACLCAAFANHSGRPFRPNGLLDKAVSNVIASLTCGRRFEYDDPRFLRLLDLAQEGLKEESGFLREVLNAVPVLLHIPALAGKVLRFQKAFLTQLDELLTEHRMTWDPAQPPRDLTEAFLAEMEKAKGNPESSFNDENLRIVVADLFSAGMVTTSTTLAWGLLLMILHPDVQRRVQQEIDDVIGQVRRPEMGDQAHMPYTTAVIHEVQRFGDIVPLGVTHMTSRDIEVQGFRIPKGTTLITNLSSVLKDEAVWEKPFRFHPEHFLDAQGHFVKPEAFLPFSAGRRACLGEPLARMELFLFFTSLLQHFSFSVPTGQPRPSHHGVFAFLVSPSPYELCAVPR

[14] = biological target: Cytochrome P450 2C9 (Homo sapiens, UniProt P11712); assay: Inhibition of CYP2C9 in human liver microsomes assessed as diclofenac alpha'-hydroxylation; assay type: ADME
[15] = biological target: T2, Beta-3 adrenergic receptor (Homo sapiens, UniProt P13945); assay: Agonist activity at human beta3 adrenergic receptor expressed in CHO cells assessed as accumulation of cAMP after 30 mins by TR-FRET assay relative to (R)-(-)-isoproterenol; assay type: functional, cell-based
Target sequence in this assay (P13945 whole entry, looked up): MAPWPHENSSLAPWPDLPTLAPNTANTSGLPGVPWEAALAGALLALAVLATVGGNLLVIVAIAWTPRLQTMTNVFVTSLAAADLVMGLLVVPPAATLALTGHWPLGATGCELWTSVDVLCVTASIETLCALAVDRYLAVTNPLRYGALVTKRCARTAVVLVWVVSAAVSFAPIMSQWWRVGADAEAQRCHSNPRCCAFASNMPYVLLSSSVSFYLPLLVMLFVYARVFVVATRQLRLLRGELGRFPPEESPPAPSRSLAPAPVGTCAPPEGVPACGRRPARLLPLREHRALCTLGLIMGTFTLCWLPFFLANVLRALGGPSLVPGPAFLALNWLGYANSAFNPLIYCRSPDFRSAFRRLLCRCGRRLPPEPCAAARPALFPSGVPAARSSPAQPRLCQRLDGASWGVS

[16] = Plasma clearance in rat at 1 mg/kg, iv or 2 mg/kg, po; assay type: ADME, organism-based
[17] = Plasma clearance in dog at 0.5 mg/kg, iv or 2 mg/kg, po; assay type: ADME, organism-based, Canis lupus familiaris
[18] = Stability in human plasma assessed as parent compound remaining at 24 hrs by LC-MS analysis; assay type: ADME, cell-free; conditions: read-out: Stability
[19] = Plasma clearance in rhesus monkey at 0.5 mg/kg, iv or 2 mg/kg, po; assay type: ADME, organism-based, Macaca mulatta
[20] = test system: Canis familiaris; assay: Unbound clearance in dog at 0.5 mg/kg, iv or 2 mg/kg, po; assay type: ADME, organism-based, Canis lupus familiaris; conditions: in vivo
[21] = test system: Rhesus monkey; assay: Unbound clearance in rhesus monkey at 0.5 mg/kg, iv or 2 mg/kg, po; assay type: ADME, organism-based, Macaca mulatta; conditions: in vivo
[22] = Half life in rat at 1 mg/kg, iv or 2 mg/kg, po; assay type: ADME, organism-based; conditions: in vivo
[23] = Half life in dog at 0.5 mg/kg, iv or 2 mg/kg, po; assay type: ADME, organism-based, Canis lupus familiaris; conditions: in vivo
[24] = test system: Rattus norvegicus; assay: Dose normalized total AUC in rat at 2 mg/kg, po; assay type: ADME, organism-based; conditions: in vivo
[25] = test system: Rhesus monkey; assay: Dose normalized total AUC in rhesus monkey at 2 mg/kg, po; assay type: ADME, organism-based, Macaca mulatta; conditions: in vivo
[26] = test system: Rattus norvegicus; assay: Dose normalized fAUC in rat at 2 mg/kg, po; assay type: ADME, organism-based; conditions: in vivo
[27] = Oral bioavailability in rat at 2 mg/kg; assay type: ADME, organism-based; conditions: in vivo
[28] = Oral bioavailability in dog at 2 mg/kg; assay type: ADME, organism-based, Canis lupus familiaris; conditions: in vivo
[29] = Fraction unbound in rat at 1 mg/kg, iv or 2 mg/kg, po; assay type: ADME, organism-based; conditions: in vivo
[30] = Fraction unbound in rhesus monkey at 0.5 mg/kg, iv or 2 mg/kg, po; assay type: ADME, organism-based, Macaca mulatta; conditions: in vivo
[31] = Intrinsic clearance in rat liver microsomes; assay type: ADME; conditions: read-out: CLH
[32] = Intrinsic clearance in dog liver microsomes; assay type: ADME, Canis lupus familiaris; conditions: read-out: CLH
[33] = Intrinsic clearance in rhesus monkey liver microsomes; assay type: ADME, Macaca mulatta; conditions: read-out: CLH
[34] = Stability in rhesus monkey plasma assessed as parent compound remaining at 24 hrs by LC-MS analysis; assay type: ADME, cell-free, Macaca mulatta; conditions: read-out: Stability
[35] = biological target: Beta-3 adrenergic receptor (Rattus norvegicus) (UniProt P26255); assay: Agonist activity at rat beta3 adrenergic receptor expressed in CHO cells assessed as accumulation of cAMP after 30 mins by TR-FRET assay relative to (R)-(-)-isoproterenol; assay type: functional, cell-based
[36] = biological target: Beta-3 adrenergic receptor (Macaca mulatta, UniProt Q28524); assay: Agonist activity at rhesus monkey beta3 adrenergic receptor expressed in CHO cells assessed as accumulation of cAMP after 30 mins by TR-FRET assay; assay type: functional, cell-based
[37] = biological target: T2, Beta-3 adrenergic receptor; assay: Agonist activity at human adrenergic beta3 receptor expressed in CHO cells assessed as accumulation of cAMP after 30 mins by TR-FRET assay in presence of 40% serum; assay type: functional, cell-based
Target sequence in this assay (P13945 whole entry): as the sequence (P13945 whole entry, looked up) above

[38] = test system: Rattus norvegicus; assay: Increase in detrusor muscle relaxation in iv infused Sprague-Dawley rat acetic acid-induced bladder hyperreflexia model assessed as increase in functional bladder capacity measured over 30 to 45 mins; assay type: organism-based
[39] = test system: Rattus norvegicus; assay: Increase in circulating glycerol level in iv infused Sprague-Dawley rat after 45 mins by liquid chromatography-tandem mass spectrometric analysis; assay type: functional
[40] = Drug recovery in bile duct cannulated rat urine at 5 mg/kg, iv measured over 48 hrs; assay type: ADME, organism-based; conditions: read-out: Drug recovery
[41] = Drug recovery in bile duct cannulated rat bile at 10 mg/kg, po measured over 48 hrs; assay type: ADME, organism-based; conditions: read-out: Drug recovery
[42] = Drug recovery in bile duct cannulated rat bile at 5 mg/kg, iv measured over 48 hrs; assay type: ADME, organism-based; conditions: read-out: Drug recovery
[43] = Drug recovery in bile duct cannulated rat at 10 mg/kg, po measured over 48 hrs; assay type: ADME, organism-based; conditions: in vivo, read-out: Drug recovery
[44] = biological target: T1, Cytochrome P450 3A4; assay: Time-dependent inhibition of CYP3A4 in human liver microsomes up to 50 uM; assay type: ADME
[45] = test system: Hepatocyte; assay: Increase in CYP3A4 mRNA expression in human hepatocytes up to 10 uM; assay type: ADME, cell-based
[46] = biological target: Nuclear receptor subfamily 1 group I member 2 (Homo sapiens, UniProt O75469); assay: Activation of human PX receptor
Chain of Nuclear receptor subfamily 1 group I member 2 (O75469 whole entry): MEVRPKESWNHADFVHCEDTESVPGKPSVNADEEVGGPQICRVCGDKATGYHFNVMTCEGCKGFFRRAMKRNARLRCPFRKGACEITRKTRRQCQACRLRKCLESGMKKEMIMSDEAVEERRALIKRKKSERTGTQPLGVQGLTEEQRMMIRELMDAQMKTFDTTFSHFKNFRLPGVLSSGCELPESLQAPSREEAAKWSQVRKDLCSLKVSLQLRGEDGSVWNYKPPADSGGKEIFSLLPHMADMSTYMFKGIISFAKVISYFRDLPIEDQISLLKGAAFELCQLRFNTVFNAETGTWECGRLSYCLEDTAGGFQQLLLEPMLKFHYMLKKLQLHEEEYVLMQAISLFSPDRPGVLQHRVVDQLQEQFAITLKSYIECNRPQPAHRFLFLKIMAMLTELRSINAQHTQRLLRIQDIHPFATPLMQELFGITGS

[47] = Solubility of the compound in simulated gastric fluid; assay type: ADME
[48] = Solubility of the compound in fed-simulated intestinal fluid; assay type: ADME; conditions: fed-state simulated intestinal fluid
[49] = Solubility of the compound in fasted-simulated intestinal fluid; assay type: ADME; conditions: fasted-state simulated intestinal fluid
[50] = organism: Rattus norvegicus; assay: Toxicity in Sprague-Dawley rat assessed as postmortem parameters measured up to 6 months; assay type: organism-based; conditions: in vivo
[51] = biological target: Beta-2 adrenergic receptor (Homo sapiens, UniProt P07550)
Chain of Beta-2 adrenergic receptor (P07550 whole entry): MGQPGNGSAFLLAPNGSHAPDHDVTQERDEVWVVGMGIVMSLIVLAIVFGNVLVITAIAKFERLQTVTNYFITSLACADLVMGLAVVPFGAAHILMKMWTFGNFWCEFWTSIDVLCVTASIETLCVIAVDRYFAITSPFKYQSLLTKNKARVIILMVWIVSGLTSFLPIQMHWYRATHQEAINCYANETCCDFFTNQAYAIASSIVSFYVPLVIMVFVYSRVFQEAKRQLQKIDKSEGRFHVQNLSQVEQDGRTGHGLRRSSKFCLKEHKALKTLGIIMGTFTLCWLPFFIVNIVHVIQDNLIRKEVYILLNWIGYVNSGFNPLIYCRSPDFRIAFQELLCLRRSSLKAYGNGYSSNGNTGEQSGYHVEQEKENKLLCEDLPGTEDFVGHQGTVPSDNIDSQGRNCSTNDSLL
Description: Displacement of [125]I-cyanopindolol from human recombinant beta2 adrenergic receptor after 1 hr by scintillation counting method

[52] = biological target: Beta-1 adrenergic receptor (Homo sapiens, UniProt P08588)
Description: Displacement of [125]I-cyanopindolol from recombinant human beta1 adrenergic receptor after 1 hr by scintillation counting method

half-life [2]: 7 h | AUC/dose [3]: 870 nM·h/mg/kg | fAUC/dose [4]: 500 nM·h/mg/kg | bioavailability [5]: 46% | fraction unbound [6]: 0.58 | IC50 [7]: > 100 µM | Activity [8]: Not Active | IC50 [9]: > 10 µM | IC50 [10]: > 30 µM | IC50 [12]: > 100 µM | IC50 [13]: > 100 µM | IC50 [14]: > 100 µM | max activation [15]: 84% | clearance [16]: 14 mL/min/kg | clearance [17]: 15 mL/min/kg | remaining at 24 h [18]: 100% | clearance [19]: 16 mL/min/kg | CL free [20]: 37 mL/min/kg | CL free [21]: 33 mL/min/kg | half-life [22]: 7 h | half-life [23]: 13 h | AUC/dose [24]: 540 nM·h/mg/kg | AUC/dose [25]: 540 nM·h/mg/kg | fAUC/dose [26]: 113 nM·h/mg/kg | bioavailability [27]: 20% | bioavailability [28]: 44% | fraction unbound [29]: 0.21 | fraction unbound [30]: 0.49 | CLint scaled [31]: 20 mL/min/kg | CLint scaled [32]: 13 mL/min/kg | CLint scaled [33]: 18 mL/min/kg | remaining at 24 h [34]: 93% | max activation [35]: 83% | EC50 [36]: 0.00057 µM | EC50 [37]: 0.0016 µM | dose excreted at 48 h [40]: 37% | dose excreted at 48 h [41]: 36% | dose excreted at 48 h [42]: 33% | dose excreted at 48 h [43]: 87% | TDI [44]: Not Active | Activity [45]: Not Active | EC50 [46]: > 30 µM | solubility [47]: > 4000 µg/mL | solubility [48]: > 4000 µg/mL | solubility [49]: > 4000 µg/mL | IC50 [51]: > 20 µM | IC50 [52]: > 20 µM
SMILES: O=C(Nc1ccc(C[C@@H]2CC[C@H]([C@H](O)c3ccccc3)N2)cc1)[C@@H]1CCc2nccc(=O)n21 [VIBEGRON]
Activity [1]: Non-toxic | IC50 [11]: > 30 µM | Activity [38]: Dose-dependent effect | Activity [39]: Dose-dependent effect | minimal effective dose ([39]; 0.75 h, read-out: MED): 0.3 mg/kg | Activity [50]: Non-toxic

Reference: ChEMBL document CHEMBL3763146 (J Med Chem, 2016)
